Source: US6414001B2, “Ether and amide compounds preparation thereof composition containing same and use thereof as antidiadetics” (Kotobuki Pharmaceutical Co. Ltd., priority 2000, dated 2002)

Key:
db/db mice = assay: Hypoglycemic activity in mice; assay type: in vivo; conditions: for inhibition in vivo at 30 mg/kg: 30 mg/kg once a day for four consecutive days; for inhibition in vivo at 3 mg/kg: 3 mg/kg once a day for four consecutive days
Protocol: Hypoglycemic Activity in Mice
Test compounds were suspended in 0.5% Methyl cellulose solution and administered (p.o.) to db/db mice (obtained from Nihon Clea) at a range of 3-30 mg/kg once a day for four consecutive days. Troglitazone (300 mg/kg) was also administrated for control.

[1] = Mus musculus, po, suspended in 0.5% methyl cellulose
[2] = Mus musculus, po, 10 mg/kg once a day for four consecutive days, suspended in 0.5% methyl cellulose

melting point [°C] | Compound | inhibition in vivo at 10 mg/kg (db/db mice; [2]) [%] | also measured
 | Cc1oc(-c2ccc(O)c(C(C)(C)C)c2)nc1CCOc1ccc(NS(=O)(=O)C(F)(F)F)cc1 [Compound 70] |  | inhibition in vivo at 30 mg/kg (db/db mice; [1]): 51%
 | CCOc1cc(OCCc2nc(-c3ccccc3)oc2C)ccc1C(=O)O [Compound 31, 2-Ethoxy-4-[2-(5-methyl-2-phenyl-1,3-oxazole-4-yl)ethoxy]benzoic acid] |  | inhibition in vivo at 30 mg/kg (db/db mice; [1]): 19%
147 to 149 | Cc1oc(-c2ccccc2)nc1CC(=O)Nc1ccc(NS(=O)(=O)C(F)(F)F)cc1 [Compound 48] |  | inhibition in vivo at 30 mg/kg (db/db mice; [1]): 65.4%
 | Cc1oc(-c2ccc(F)cc2)nc1CCOc1ccc(NS(=O)(=O)C(F)(F)F)cc1 [Compound 59] |  | inhibition in vivo at 3 mg/kg (db/db mice; [1]): 18.4%
 | Cc1c(C)c2c(c(C)c1O)CCC(C)(COc1ccc(CC3SC(=O)NC3=O)cc1)O2 (stereo not shown) [Troglitazone, reference compound] |  | inhibition in vivo at 300 mg/kg (db/db mice; Mus musculus, po, 300 mg/kg, control drug): 34%
113 to 115 | Cc1oc(-c2ccccc2)nc1CCOc1ccc(CNS(=O)(=O)C(F)(F)F)cc1 [Compound 9, 2-[4-(2-(5-Methyl-2-phenyl-1,3-oxazole-4-yl)ethoxy)benzyl]trifluoromethylsulfonamide] | 24 | 
 | Cc1oc(-c2cc(C(C)(C)C)c(O)c(C(C)(C)C)c2)nc1CCOc1ccc(NS(=O)(=O)C(F)(F)F)cc1 [Compound 19] | 12.8 | 
 | CN(CCOc1ccc(NS(=O)(=O)C(F)(F)F)cc1)c1ccccn1 [Compound 11, 4-[2-(N-Methyl-N-2-pyridyl)aminoethoxy]benzene trifluoromethanesulfonamide] | 15.4 | 
 | Cc1oc(-c2cc(C(C)(C)C)c(OCC(=O)O)c(C(C)(C)C)c2)nc1CCOc1ccc(NS(=O)(=O)C(F)(F)F)cc1 [Compound 68] |  | inhibition in vivo at 3 mg/kg (db/db mice; [1]): 21.2%
 | Cc1oc(-c2ccc(Cl)cc2)nc1CCOc1ccc(NS(=O)(=O)C(F)(F)F)cc1 [Compound 58] |  | inhibition in vivo at 3 mg/kg (db/db mice; [1]): 43.4%
 | COc1ccc(-c2nc(CCOc3ccc(NS(=O)(=O)C(F)(F)F)cc3)c(C)o2)cc1 [Compound 18] | 34.7 | 
167 to 168 | Cc1oc(-c2ccc(OCC(=O)O)cc2)nc1CCOc1ccc(NS(=O)(=O)C(F)(F)F)cc1 [Compound 67] |  | inhibition in vivo at 3 mg/kg (db/db mice; [1]): 33.1%
133 to 135 | CCOc1cc(OCCc2nc(-c3ccccc3)oc2C)ccc1NS(=O)(=O)C(F)(F)F [Compound 40] |  | inhibition in vivo at 30 mg/kg (db/db mice; [1]): 53.4%
 | Cc1oc(-c2ccccc2)nc1CCOc1ccc(NS(=O)(=O)C(F)(F)F)c(O)c1 [Compound 42] | 29.6 | 
196 to 198 | Cc1oc(-c2ccccc2)nc1CCOc1ccc(NC(=O)C(=O)O)cc1 [Compound 8, 2-[4-(2-(5-Methyl-2-phenyl-1,3-oxazole-4-yl)ethoxy)phenyl]amino-2-oxo-acetic acid] | 26 | 
76 to 78 | CCc1ccc(CCOc2ccc(NS(=O)(=O)C(F)(F)F)cc2)nc1 [Compound 10, 4-[2-(5-Ethylpyridine-2-yl)ethoxy]benzene trifluoromethylsulfonamide] | 32.4 | 
133 to 134 | COC(=O)c1ccc(OCCc2nc(-c3ccccc3)oc2C)cc1O [Compound 25, 2-Hydroxy-4-[2-(5-methyl-2-phenyl-1,3-oxazole-4-yl)ethoxy]benzoic acid methyl ester] |  | 
 | 4-[2-(5-Methyl-2-phenyl-1,3-oxazole-4-yl)ethoxy]benzene trifluoromethyl sulfonamide [Compound 2] |  | Hypoglycemic activity (%) (db/db mice; p.o., 10 mg/kg once a day for four consecutive days, suspended in 0.5% methyl cellulose): 49.0%
 | Cc1oc(-c2ccccc2)nc1CC(=O)Nc1ccc(C(=O)O)c(O)c1 [Compound 52] |  | inhibition in vivo at 30 mg/kg (db/db mice; [1]): 10.5%
